By half-life is commonly meant the time in which the quantity being followed falls by half. The low end stands for rapid decline, the high end for slow decline. What is called hepatocyte CLint is the rate of metabolic loss divided by the concentration. Higher therefore signals rapid turnover. In general, pEC50 refers to the negative decadic logarithm of the EC50, by convention in mol/L. Higher therefore signals a low EC50.

This is an account of results in patent US12195557B2, “Optimised compounds” (AXELIA ONCOLOGY PTY LTD, priority 2017, dated 2025).

pEC50: −log10 of the molar value. Entries after “also recorded” stand apart in the source; their conditions may differ. A value given as a limit tells only on which side of the number the result lay.

For data set [1] the following is noted: human plasma, 37° C., 4 h time course.
Data set [2] can be described thus: Size exclusion chromatography and LC-MS analysis of micelle aggregates. It is filed as physicochemical. To be noted: INNA-006 at 0.3 mg/ml in PBS; INNA-011 at 0.4 mg/ml in saline. The procedure:
INNA-011 and INNA-006 form micelle-type aggregates in both aqueous and organic solutions. The size distribution and polydispersity of particles of INNA-006 and INNA-011 were determined by dynamic light scattering (DLS) and size exclusion chromatography (University of Melbourne). […] This corresponds to the assembly in a micelle formation of about 266 individual INNA-006 molecules. Using size exclusion chromatography and LC-MS analysis, it was determined that INNA-011 at 0.4 mg/ml is present in saline solution as a single uniform species with a Stoke's radius of ˜7.3 nm and a molecular weight of ˜566,000. This corresponds to the assembly in a micelle formation of about 267 individual INNA-011 molecules.
(In general: In gel filtration, larger molecules generally elute earlier.)

Data set [3] is described as follows: in vitro. To be noted: human, hepatocytes.
Data set [4] can be described thus: in vitro. To be noted: rat, hepatocytes.
The test system of the next data set is TLR-2. Nature of the data set: TLR panel, NF-κB inducible SEAP reporter in HEK293 cells: TLR-2. It is filed as cell-based, human and mouse. On the procedure:
(§1) INNA-006 was assessed for its ability to activate a range of other TLR pattern recognition receptors. These assessments were conducted using both human and mouse TLR panels. These assays detect a secreted embryonic alkaline phosphatase (SEAP) reporter under the control of a promoter which is inducible by NF-κB activation in HEK293 cells. The secreted embryonic alkaline phosphatase (SEAP) reporter is under the control of a promoter inducible by the transcription factor NF-κB. This reporter gene allows the monitoring of signaling through the TLR, based on the activation of NF-κB. In a 96-well plate (200 μL total volume) containing the appropriate cells (50,000-75,000 cells/well), 20 μL of the test article or the positive control ligand is added to the wells. The media added to the wells is designed for the detection of NF-κB induced SEAP expression. After a 16-24 hr incubation the optical density (OD) is read at 650 nm on a Molecular Devices SpectraMax 340PC absorbance detector. • hTLR2: HKLM (heat-killed Listeria monocytogenes) at 1×10^8 cells/mL • hTLR3: Poly(I:C) HMW at 1 μg/mL • hTLR4: E. coli K12 LPS at 100 ng/mL • hTLR5: S. typhimurium flagellin at 100 ng/mL • hTLR7: CL307 at 1 μg/mL • hTLR8: CL075 at 1 μg/mL • hTLR9: CpG ODN2006 at 1 μg/mL.

The nature of data set [5]: in vitro. To be noted: cynomolgus monkey, hepatocytes.
Data set [6] can be described thus: in vitro. To be noted: dog, dog plasma.
The next data set deals with T1, human TLR2 (Homo sapiens, UniProt O60603).
T1 construct: host or cells: HEK-Blue hTLR2 (HEK293-derived) cell line
T1 sequence (O60603 21-784): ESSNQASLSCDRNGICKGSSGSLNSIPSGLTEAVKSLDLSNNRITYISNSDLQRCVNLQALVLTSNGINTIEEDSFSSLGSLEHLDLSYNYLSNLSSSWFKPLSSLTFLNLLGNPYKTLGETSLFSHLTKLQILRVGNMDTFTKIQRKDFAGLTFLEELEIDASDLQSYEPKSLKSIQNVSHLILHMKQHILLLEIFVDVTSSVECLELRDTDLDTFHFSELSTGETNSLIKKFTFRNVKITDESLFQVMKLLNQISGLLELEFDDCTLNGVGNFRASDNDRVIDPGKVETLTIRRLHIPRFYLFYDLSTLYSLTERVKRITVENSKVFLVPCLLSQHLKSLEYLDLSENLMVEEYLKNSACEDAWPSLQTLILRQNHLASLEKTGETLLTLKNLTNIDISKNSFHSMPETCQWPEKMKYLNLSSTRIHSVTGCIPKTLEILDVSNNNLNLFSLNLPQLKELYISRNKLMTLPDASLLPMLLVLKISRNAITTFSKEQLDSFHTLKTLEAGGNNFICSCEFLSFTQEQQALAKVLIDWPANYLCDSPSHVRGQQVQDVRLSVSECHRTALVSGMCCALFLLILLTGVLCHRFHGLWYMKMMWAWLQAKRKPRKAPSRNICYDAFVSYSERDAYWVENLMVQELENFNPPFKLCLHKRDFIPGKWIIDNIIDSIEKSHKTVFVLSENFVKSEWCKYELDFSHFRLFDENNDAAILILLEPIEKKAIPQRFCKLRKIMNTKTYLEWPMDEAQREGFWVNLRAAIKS
T1 sequence (Q9Y2C9 32-796 partner): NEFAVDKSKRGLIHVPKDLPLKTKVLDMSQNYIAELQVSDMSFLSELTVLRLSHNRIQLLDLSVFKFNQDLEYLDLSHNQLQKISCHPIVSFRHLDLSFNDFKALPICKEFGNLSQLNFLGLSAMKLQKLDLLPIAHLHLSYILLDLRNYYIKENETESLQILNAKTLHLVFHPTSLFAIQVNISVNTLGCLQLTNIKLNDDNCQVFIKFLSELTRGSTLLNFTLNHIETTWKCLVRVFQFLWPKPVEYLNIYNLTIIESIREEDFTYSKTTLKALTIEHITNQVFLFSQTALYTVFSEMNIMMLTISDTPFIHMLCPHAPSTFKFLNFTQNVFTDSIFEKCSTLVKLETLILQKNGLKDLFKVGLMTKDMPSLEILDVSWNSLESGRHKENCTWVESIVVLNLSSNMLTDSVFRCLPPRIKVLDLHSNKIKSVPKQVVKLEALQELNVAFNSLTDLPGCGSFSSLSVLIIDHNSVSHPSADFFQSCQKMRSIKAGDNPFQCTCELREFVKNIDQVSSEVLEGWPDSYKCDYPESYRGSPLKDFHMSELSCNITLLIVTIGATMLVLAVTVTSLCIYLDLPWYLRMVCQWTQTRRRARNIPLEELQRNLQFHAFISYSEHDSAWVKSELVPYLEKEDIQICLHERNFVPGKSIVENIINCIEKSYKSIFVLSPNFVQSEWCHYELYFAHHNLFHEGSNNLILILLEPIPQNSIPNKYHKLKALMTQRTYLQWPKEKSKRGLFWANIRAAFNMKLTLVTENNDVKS
Nature of the data set: NF-kB activation in HEKBlue-hTLR2 cell line (SEAP reporter). The format is cell-based. On the procedure: The potency of the compounds as activators of human and mouse TLR-2s was tested in an in vitro assay. The assay assesses NF-kB activation in the HEKBlue-mTLR-2 cell line. These cells have been stably transfected with mouse TLR-2 and express TLR-1 and TLR-6 endogenously at sufficient levels to allow for fully-functional TLR-1/2 and TLR-2/6 activation.
Toll-Like Receptor 2 (TLR2) stimulation is tested by assessing NF-kB activation in the HEKBlue-hTLR2 cell line. These cells have been stably transfected with human TLR2 and express TLR1 and TLR6 endogenously at a level sufficient to allow for fully-functional TLR1/2 and TLR2/6 activation. The activity of the test articles are tested on human TLR2 as potential agonists. The test articles are evaluated at seven concentrations and compared to control ligands. These steps are performed in triplicate.
Toll-Like Receptor 2 (TLR2) stimulation was tested by assessing N-kB activation in the HEK-Blue hTLR2 cell line. These cells have been stably transfected with human TLR2 and express TLR1 and TLR6 endogenously at a level sufficient to allow for fully-functional TLR1/2 and TLR2/6 activation. The activity of the test articles were tested on human TLR2 as potential agonists. The test articles were evaluated at seven concentrations and compared to control ligands (see list below). These steps were performed in triplicate.
The secreted embryonic alkaline phosphatase (SEAP) reporter is under the control of a promoter inducible by the transcription factor NF-κB. This reporter gene allows the monitoring of signaling through the TLR, based on the activation of NF-κB. In a 96-well plate (200 μL total volume) containing the appropriate cells (50,000-75,000 cells/well), 20 μL of the test article or the positive control ligand is added to the wells. The media added to the wells is designed for the detection of NF-κB induced SEAP expression. After a 20 hour incubation the optical density (OD) is read at 650 nm on a Molecular Devices SpectraMax 340PC absorbance detector.

The subject of data set [7] is other TLR pattern recognition receptors (hTLR3, hTLR4, hTLR5, hTLR7, hTLR8, hTLR9). The data set is described as follows: TLR panel, NF-κB inducible SEAP reporter in HEK293 cells: other TLRs. The format is cell-based, human and mouse. On the procedure:
as §1

Data set [8] is described as follows: Dynamic light scattering (DLS) particle size. To be noted: within 2 hours of sample preparation. The format is physicochemical. The procedure:
INNA-011 and INNA-006 form micelle-type aggregates in both aqueous and organic solutions. The size distribution and polydispersity of particles of INNA-006 and INNA-011 were determined by dynamic light scattering (DLS) and size exclusion chromatography (University of Melbourne).
As the concentration of INNA-006 is increased, material with a particle size centered on a radius of ˜7 nm accumulates within 2 hours of the sample preparation as measured by DLS. This accumulation starts at a concentration of ˜16 μM, (0.02 mg/ml, represents the 0.16 nmole/10 μl curve) and is clearly discernable at 125 μM (0.17 mg/ml, represents the 1.25 nmole/10 μl curve) and above.
At the concentrations of 2 mM to […] particle sizes (7.4-7.7 nm) were larger than that observed with INNA-006 and additional species outside of this main sequence were more ordered and less dominant.

For `CCC(=O)OCC(CSCC(N)C(=O)NC(CO)C(=O)NCCOCC(=O)NCC(N)=O)OC(=O)CC` (stereo not drawn) [INNA-006, Pam2Cys-Ser-PEG], the plasma half-life result in data set [1] was “could not be calculated due to insufficient degradation”. Further, in data set [2], the Stokes radius is recorded as approximately 6.3 nm, the “individual molecules assembled in a micelle formation” value is recorded as “about 266 molecules” and the “molecular weight of micelle species” value is ~377,000. In addition, in the data set “in vitro [3]”, the half-life at 0.5 μM is more than 6.25 h and the hepatocyte CLint at 0.5 μM was less than 2 µL/min/1e6 cells. In “in vitro [4]”, this compound came in with a half-life at 0.5 μM of more than 6.25 h and a hepatocyte CLint at 0.5 μM of less than 2 µL/min/1e6 cells. Moreover, in the data set on TLR-2, the TLR-2 activation result is on record as “specific TLR-2 activation; also recorded: able to activate”. In “in vitro [5]”, this compound gave a half-life at 0.5 μM of more than 6.25 h and a hepatocyte CLint at 0.5 μM of less than 2 µL/min/1e6 cells. In the data set “in vitro [6]”, this compound had a half-life of 8.9 h. In addition, the “TLR2 activation, potency in words” value at human TLR2 (Example 2) is on record as “significantly more potent than INNA-003”. The compound also showed a negative-log EC50 (pEC50) on human TLR2 (agonist activity against Human TLR-2 in vitro) of 11.11. Further, the “activation of any other TLR tested” value in data set [7] is recorded as “no activation”. Besides, the “concentration at which accumulation of ~7 nm particles starts” value in data set [8] (DLS) was approximately 16 µM. In data set [8] (INNA-011 at 2 mM to 8 pM in PBS), the “particle size (radius) by DLS” value was “around 7 nm”.
